Assay results from the supplement of paper PMC11208160.
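Further: IS621 bridge recombinase in Escherichia coli cells against a fixed T5 target plasmid.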

Test: recombinant UMI read abundance after kanamycin selection (control-corrected) (log10(CPM+1)); higher = more efficient recombination; extreme values may be limits of the assay; sequences stand for … in AGTGCAGAGAAAATCGGCCAGTTTTCTCTGCCTGCAGTCCGCATGCCGTGGGACCCCTTGGGTTCTAACCTGTTGCCTAGATTTATGCAGCGGACTGCCTTTCTCCCAAAGTGATAAACCGG…AGGTTGGTTTCACT; site = the 11-nt donor
Summary of the method: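 Two replicates each of selected and unselected plating were used in this pooled Escherichia coli screen of donor and donor-binding-loop pairs for the IS621 bridge recombinase. Selection was with IPTG (0.07 mM) and kanamycin. Counts of recombinant UMIs, amplified across the donor–target junction, were converted to CPM, averaged, scaled by control-derived factors and reported as log10(CPM+1).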
In the case of “CAATTCCCATGGACCGGTTTTCCCGGTAATCCGTATTTGCC (site CAATTCCCTAG)”, the “recombinant UMI read abundance (log10)” value was 0.635. With “CAATTCCCATGGACCGGTTTTCCCGGTAATCCGTATTTGCC (site CAATTCCCTCG)” the “recombinant UMI read abundance (log10)” value was 0.0185. With “CAATTCCCATGGACCGGTTTTCCCGGTAATCCGTATTTGCC (site CAATTCCCTGG)” the “recombinant UMI read abundance (log10)” value was 0. For “CAATTCCCATGGACCGGTTTTCCCGGTAATCCGTATTTGCC (site CAATTCCCTTG)”, the “recombinant UMI read abundance (log10)” value was 0. In the case of “CAATTCCCATGGACCGGTTTTCCCGGTAATCCGTATTTGGT (site CAATTCCCTAA)”, the “recombinant UMI read abundance (log10)” value was 0.173. For “CAATTCCCATGGACCGGTTTTCCCGGTAATCCGTATTTGGT (site CAATTCCCTAC)”, the “recombinant UMI read abundance (log10)” value was 0.529. For “CAATTCCCATGGACCGGTTTTCCCGGTAATCCGTATTTGGT (site CAATTCCCTAG)”, the “recombinant UMI read abundance (log10)” value was 0. With “CAATTCCCATGGACCGGTTTTCCCGGTAATCCGTATTTGGT (site CAATTCCCTAT)” the “recombinant UMI read abundance (log10)” value was 0.681. For “CAATTGACATGGACCGGTTTTCCCGGTAATCCGTATTTGAA (site CAATTGACTTT)”, the “recombinant UMI read abundance (log10)” value was 2.17. In the case of “CAATTTCCATGGACCGGTTTTCCCGGTAATCCGTATTTGCT (site CAATTACCTAG)”, the “recombinant UMI read abundance (log10)” value was 0. For “CAATTTCCATGGACCGGTTTTCCCGGTAATCCGTATTTGCT (site CAATTCCCTAG)”, the “recombinant UMI read abundance (log10)” value was 0.761. In the case of “CAATTTCCATGGACCGGTTTTCCCGGTAATCCGTATTTGCT (site CAATTGCCTAG)”, the “recombinant UMI read abundance (log10)” value was 0.00704. With “CAATTTCCATGGACCGGTTTTCCCGGTAATCCGTATTTGCT (site CAATTTCCTAG)” the “recombinant UMI read abundance (log10)” value was 1.08. With “CACAAATCATGGACCGGTTTTCCCGGTAATCCGTATTTGAC (site CACAAATCTGT)” the “recombinant UMI read abundance (log10)” value was 1.62. With “CACAGCCCATGGACCGGTTTTCCCGGTAATCCGTATTTGTT (site CACAGCCCTAA)” the “recombinant UMI read abundance (log10)” value was 0.97. With “CACAGCCCATGGACCGGTTTTCCCGGTAATCCGTATTTGTT (site CACCGCCCTAA)” the “recombinant UMI read abundance (log10)” value was 0.00684. In the case of “CACAGCCCATGGACCGGTTTTCCCGGTAATCCGTATTTGTT (site CACGGCCCTAA)”, the “recombinant UMI read abundance (log10)” value was 0.0224. In the case of “CACAGCCCATGGACCGGTTTTCCCGGTAATCCGTATTTGTT (site CACTGCCCTAA)”, the “recombinant UMI read abundance (log10)” value was 0.018. In the case of “CACAGTGCATGGACCGGTTTTCCCGGTAATCCGTATTTGAT (site CACAGTGCTAT)”, the “recombinant UMI read abundance (log10)” value was 2.52. For “CACATGGCATGGACCGGTTTTCCCGGTAATCCGTATTTGCC (site CACATGGCTGG)”, the “recombinant UMI read abundance (log10)” value was 0. For “CACCCTACATGGACCGGTTTTCCCGGTAATCCGTATTTGAG (site CACCCTACTCT)”, the “recombinant UMI read abundance (log10)” value was 1.27. For “CACCCTACATGGACCGGTTTTCCCGGTAATCCGTATTTGAG (site CCCCCTACTCT)”, the “recombinant UMI read abundance (log10)” value was 0.0201. For “CACCCTACATGGACCGGTTTTCCCGGTAATCCGTATTTGAG (site CGCCCTACTCT)”, the “recombinant UMI read abundance (log10)” value was 0.0118. In the case of “CACCCTACATGGACCGGTTTTCCCGGTAATCCGTATTTGAG (site CTCCCTACTCT)”, the “recombinant UMI read abundance (log10)” value was 0.0244. In the case of “CACCCTACATGGACCGGTTTTCCCGGTAATCCGTATTTGGC (site CACCCTACTGC)”, the “recombinant UMI read abundance (log10)” value was 2.59. For “CACCTTACATGGACCGGTTTTCCCGGTAATCCGTATTTGTC (site CACCTTACTGA)”, the “recombinant UMI read abundance (log10)” value was 0. For “CACGACCCATGGACCGGTTTTCCCGGTAATCCGTATTTGTT (site CACGACCCTAA)”, the “recombinant UMI read abundance (log10)” value was 0.631. In the case of “CACGACCCATGGACCGGTTTTCCCGGTAATCCGTATTTGTT (site CACGCCCCTAA)”, the “recombinant UMI read abundance (log10)” value was 0.0282. In the case of “CACGACCCATGGACCGGTTTTCCCGGTAATCCGTATTTGTT (site CACGGCCCTAA)”, the “recombinant UMI read abundance (log10)” value was 0.0138. In the case of “CACGACCCATGGACCGGTTTTCCCGGTAATCCGTATTTGTT (site CACGTCCCTAA)”, the “recombinant UMI read abundance (log10)” value was 0.00755. For “CACGCATCATGGACCGGTTTTCCCGGTAATCCGTATTTGAT (site CACGCATCTAT)”, the “recombinant UMI read abundance (log10)” value was 2.51. With “CACGCGACATGGACCGGTTTTCCCGGTAATCCGTATTTGGC (site CACGCGACTGC)” the “recombinant UMI read abundance (log10)” value was 2.94. For “CACGCTCCATGGACCGGTTTTCCCGGTAATCCGTATTTGTC (site CACGCTCCTGA)”, the “recombinant UMI read abundance (log10)” value was 2.39. In the case of “CACGGACCATGGACCGGTTTTCCCGGTAATCCGTATTTGTT (site CACGGACCTAA)”, the “recombinant UMI read abundance (log10)” value was 0.00996. With “CACGGACCATGGACCGGTTTTCCCGGTAATCCGTATTTGTT (site CACGGCCCTAA)” the “recombinant UMI read abundance (log10)” value was 0.403. With “CACGGACCATGGACCGGTTTTCCCGGTAATCCGTATTTGTT (site CACGGGCCTAA)” the “recombinant UMI read abundance (log10)” value was 0.387. In the case of “CACGGACCATGGACCGGTTTTCCCGGTAATCCGTATTTGTT (site CACGGTCCTAA)”, the “recombinant UMI read abundance (log10)” value was 0. For “CACGGCCCATGGACCGGTTTTCCCGGTAATCCGTATTTGCT (site CACGGCCCTAA)”, the “recombinant UMI read abundance (log10)” value was 0.0432. In the case of “CACGGCCCATGGACCGGTTTTCCCGGTAATCCGTATTTGCT (site CACGGCCCTAC)”, the “recombinant UMI read abundance (log10)” value was 0.0286. For “CACGGCCCATGGACCGGTTTTCCCGGTAATCCGTATTTGCT (site CACGGCCCTAG)”, the “recombinant UMI read abundance (log10)” value was 1.12. In the case of “CACGGCCCATGGACCGGTTTTCCCGGTAATCCGTATTTGCT (site CACGGCCCTAT)”, the “recombinant UMI read abundance (log10)” value was 0.636. For “CACGGCCCATGGACCGGTTTTCCCGGTAATCCGTATTTGTG (site CACGGCCCTAA)”, the “recombinant UMI read abundance (log10)” value was 0.0211. For “CACGGCCCATGGACCGGTTTTCCCGGTAATCCGTATTTGTG (site CACGGCCCTCA)”, the “recombinant UMI read abundance (log10)” value was 0.0766. In the case of “CACGGCCCATGGACCGGTTTTCCCGGTAATCCGTATTTGTG (site CACGGCCCTGA)”, the “recombinant UMI read abundance (log10)” value was 0. For “CACGGCCCATGGACCGGTTTTCCCGGTAATCCGTATTTGTG (site CACGGCCCTTA)”, the “recombinant UMI read abundance (log10)” value was 0.00311. With “CACGGTCCATGGACCGGTTTTCCCGGTAATCCGTATTTGCA (site CACGGTCCTTG)” the “recombinant UMI read abundance (log10)” value was 1.74. In the case of “CACGGTCCATGGACCGGTTTTCCCGGTAATCCGTATTTGCA (site CCCGGTCCTTG)”, the “recombinant UMI read abundance (log10)” value was 0. In the case of “CACGGTCCATGGACCGGTTTTCCCGGTAATCCGTATTTGCA (site CGCGGTCCTTG)”, the “recombinant UMI read abundance (log10)” value was 0. With “CACGGTCCATGGACCGGTTTTCCCGGTAATCCGTATTTGCA (site CTCGGTCCTTG)” the “recombinant UMI read abundance (log10)” value was 0. In the case of “CACGGTCCATGGACCGGTTTTCCCGGTAATCCGTATTTGTT (site CACGGACCTAA)”, the “recombinant UMI read abundance (log10)” value was 0.00385. For “CACGGTCCATGGACCGGTTTTCCCGGTAATCCGTATTTGTT (site CACGGCCCTAA)”, the “recombinant UMI read abundance (log10)” value was 0.18. In the case of “CACGGTCCATGGACCGGTTTTCCCGGTAATCCGTATTTGTT (site CACGGGCCTAA)”, the “recombinant UMI read abundance (log10)” value was 0.00486. With “CACGGTCCATGGACCGGTTTTCCCGGTAATCCGTATTTGTT (site CACGGTCCTAA)” the “recombinant UMI read abundance (log10)” value was 1.4. For “CACGTACCATGGACCGGTTTTCCCGGTAATCCGTATTTGCT (site CACGTACCTAG)”, the “recombinant UMI read abundance (log10)” value was 0.0043. With “CACTACTCATGGACCGGTTTTCCCGGTAATCCGTATTTGCC (site CACTACTCTGG)” the “recombinant UMI read abundance (log10)” value was 2.55. For “CACTACTCATGGACCGGTTTTCCCGGTAATCCGTATTTGCC (site CACTCCTCTGG)”, the “recombinant UMI read abundance (log10)” value was 0.801. For “CACTACTCATGGACCGGTTTTCCCGGTAATCCGTATTTGCC (site CACTGCTCTGG)”, the “recombinant UMI read abundance (log10)” value was 0.737. With “CACTACTCATGGACCGGTTTTCCCGGTAATCCGTATTTGCC (site CACTTCTCTGG)” the “recombinant UMI read abundance (log10)” value was 0. For “CACTAGGCATGGACCGGTTTTCCCGGTAATCCGTATTTGGA (site CACTAGGCTTC)”, the “recombinant UMI read abundance (log10)” value was 0.727. For “CACTAGGCATGGACCGGTTTTCCCGGTAATCCGTATTTGGA (site CACTCGGCTTC)”, the “recombinant UMI read abundance (log10)” value was 0.0143. In the case of “CACTAGGCATGGACCGGTTTTCCCGGTAATCCGTATTTGGA (site CACTGGGCTTC)”, the “recombinant UMI read abundance (log10)” value was 0.0136. In the case of “CACTAGGCATGGACCGGTTTTCCCGGTAATCCGTATTTGGA (site CACTTGGCTTC)”, the “recombinant UMI read abundance (log10)” value was 0.0198. For “CACTATGCATGGACCGGTTTTCCCGGTAATCCGTATTTGCG (site CACTATGCTCG)”, the “recombinant UMI read abundance (log10)” value was 1.67. With “CACTCCCCATGGACCGGTTTTCCCGGTAATCCGTATTTGAC (site CACTCCCCTGT)” the “recombinant UMI read abundance (log10)” value was 1.54. For “CACTCCTCATGGACCGGTTTTCCCGGTAATCCGTATTTGAC (site CACTCCTCTGA)”, the “recombinant UMI read abundance (log10)” value was 2.16. For “CACTCCTCATGGACCGGTTTTCCCGGTAATCCGTATTTGAC (site CACTCCTCTGC)”, the “recombinant UMI read abundance (log10)” value was 1.9. With “CACTCCTCATGGACCGGTTTTCCCGGTAATCCGTATTTGAC (site CACTCCTCTGG)” the “recombinant UMI read abundance (log10)” value was 1.55. In the case of “CACTCCTCATGGACCGGTTTTCCCGGTAATCCGTATTTGAC (site CACTCCTCTGT)”, the “recombinant UMI read abundance (log10)” value was 3.09. For “CACTCGACATGGACCGGTTTTCCCGGTAATCCGTATTTGGG (site CAATCGACTCC)”, the “recombinant UMI read abundance (log10)” value was 0.0326. With “CACTCGACATGGACCGGTTTTCCCGGTAATCCGTATTTGGG (site CACTCGACTCC)” the “recombinant UMI read abundance (log10)” value was 0.2. In the case of “CACTCGACATGGACCGGTTTTCCCGGTAATCCGTATTTGGG (site CAGTCGACTCC)”, the “recombinant UMI read abundance (log10)” value was 0. With “CACTCGACATGGACCGGTTTTCCCGGTAATCCGTATTTGGG (site CATTCGACTCC)” the “recombinant UMI read abundance (log10)” value was 0.0164. For “CACTGCCCATGGACCGGTTTTCCCGGTAATCCGTATTTGTT (site CACAGCCCTAA)”, the “recombinant UMI read abundance (log10)” value was 0.0209. For “CACTGCCCATGGACCGGTTTTCCCGGTAATCCGTATTTGTT (site CACCGCCCTAA)”, the “recombinant UMI read abundance (log10)” value was 0.287. With “CACTGCCCATGGACCGGTTTTCCCGGTAATCCGTATTTGTT (site CACGGCCCTAA)” the “recombinant UMI read abundance (log10)” value was 0.0106.
